Assay results as given in PMC5407767, “Characterization and expression analysis of Galnts in developing Strongylocentrotus purpuratus embryos” (PLoS ONE, 2017).

Target: SpGalNAc-T2 (Strongylocentrotus purpuratus, UniProt A0A7M7T5A5)
Assay: GalNAc transfer to peptide acceptors, radioactivity (dpm/3hr)
Type: biochemical
Conditions: acceptor peptides EA2, MUC5AC, MUC5AC-3, MUC5AC-13, MUC5AC-3/-13, SpDelta, SpNotch, 37°C, donor not given

Sequence of SpGalNAc-T2 (A0A7M7T5A5 37-564): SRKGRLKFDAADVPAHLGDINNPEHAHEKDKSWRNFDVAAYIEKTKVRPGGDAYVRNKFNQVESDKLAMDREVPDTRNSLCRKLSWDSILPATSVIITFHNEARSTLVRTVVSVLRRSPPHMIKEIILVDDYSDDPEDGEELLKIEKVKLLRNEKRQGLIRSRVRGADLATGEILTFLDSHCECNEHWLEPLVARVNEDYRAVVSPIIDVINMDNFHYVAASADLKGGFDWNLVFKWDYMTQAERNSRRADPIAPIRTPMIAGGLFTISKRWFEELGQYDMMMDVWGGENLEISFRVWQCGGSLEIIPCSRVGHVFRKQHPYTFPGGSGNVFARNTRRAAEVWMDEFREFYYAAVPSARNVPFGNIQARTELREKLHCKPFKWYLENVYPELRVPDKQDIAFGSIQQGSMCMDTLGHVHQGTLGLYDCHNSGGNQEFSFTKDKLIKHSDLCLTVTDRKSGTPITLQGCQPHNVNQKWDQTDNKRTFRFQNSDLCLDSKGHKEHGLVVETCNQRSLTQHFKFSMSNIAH

CC(=O)N[C@H]1[C@@H](OP(=O)(O)OP(=O)(O)OC[C@H]2O[C@@H](n3ccc(=O)[nH]c3=O)[C@H](O)[C@@H]2O)O[C@H](CO)[C@H](O)[C@@H]1O [UDP-GalNAc]
GalNAc transfer to peptide acceptors, radioactivity (dpm/3hr): GalNAc-T activity was observed for SpGalNAc-T1, SpGalNAc-T2, SpGalNAc-T7, SpGalNAc-T7-1, and SpGalNAc-T7-2
